Source: US20260216229A1, “PROGRAMMABLE DNA PROTEOLYSIS TARGET CHIMERAS AND METHODS OF THEIR USE” (ARIZONA BOARD OF REGENTS ON BEHALF OF ARIZONA STATE …, priority 2023, published 2026)

Target: T1, CDK6 (Homo sapiens, UniProt Q00534)
T1 construct: Western blot analysis of CDK6 degradation in U251 cells treated with distance-based DNA-PROTACs; endogenous in cells; host or cells: U-251 MG (U251) glioblastoma cells
Experiment: Western blot of CDK6 degradation in U251 cells transfected with DNA-PROTACs
Type: cell-based
Conditions: for CDK6 protein degradation (Western blot): 14-hour treatment
Experimental: U-251 MG Glioblastoma Cell Line was grown in Dulbecco's Modified Eagles Medium (DMEM) containing 10% heat inactivated fetal bovine serum (FBS), streptomycin (5 μg/mL) and 5 U/mL penicillin 95 U/mL). All cell lines were maintained, and cell culture experiments were carried out in humidified incubators at 37° C. and 5% CO2 supplementation.
One day prior to DNA-PROTACs transfection, cells were propagated into 6 cm cell culture dishes containing appropriate complete growth medium. Prior to transfection, complete medium was replaced with transfection medium (5% FBS, no Penstrep). DNA-PROTACs transfection was performed using lipofectamine 3000 reagent according to the protocols provided by the manufacture. All transfections were carried out in 6-cm dishes with 3 mL of media and concentrations of DNA-PROTACs were calculated according to this volume (3 mL). Briefly, for 50 nM concentration, 5 μL from a 30 µM DNA-PROTACs stock and 12 μL p3000 reagent was added to a tube containing 125 μL of OPTIM-MEM and 8 μL of Lipofectamine 3000 reagent was added to a separate tube containing 125 μL of OPTIM-MEM. Two tubes were incubated for 5 minutes at room temperature and DNA-PROTACs containing OPTI-MEM was then slowly added to the second tube with lipo3000. The solution in the tube was mixed well by pipetting up and down several times. After incubating for 15-20 minutes at room temperature, 250 μL of DNA-PROTACs-lipofectamine complex was added drop wise onto cells containing the transfection medium. Transfection medium was mixed well before transferring the plate into the incubator. After appropriate time, cells were either harvested or replaced with fresh medium and incubated for desired time point prior to harvesting. For proteasome inhibition assay, 5 μM of MG-132 was incubated with cells for 2 h prior to transfection of DNA-PROTACs. Then, cells were incubated for another 12 h before lysing cells. Cell lysates were prepared by incubating cells in RIPA lysis buffer (25 mM Tris pH 7.6, 150 mM NaCl, 1% NP40, 1% deoxycholate, 0.1% SDS, 1× protease inhibitor cocktail from Roche and 1 mM of PMSF) on ice for 30 minutes and cell lysate was clarified by centrifugation at high speed (15 000 rpm) for 15 minutes. Clear supernatant was collected for further experiments.
Protein concentration in all the cell lysates were measured by BCA protein assay kit and equal amounts from each lysate were mixed with 4×loading dye and boiled for 5 minutes followed by 2 minutes centrifugation prior to loading into SDS-PAGE gel. Next proteins on the SDS-PAGE gel were transferred to a Nitrocellulose membrane by western blotting and the membrane was blocked with 5% milk in TBST (0.05% Tween 20) for 1 h. Primary antibodies (all Abcam antibodies were diluted 1:5000) were prepared in TBST with 2.5% milk and membranes were incubated overnight at 4° C. On the following day, membrane was washes for 15 minutes (Incubate for three times, 5 minutes each) and appropriate secondary antibodies (1:5000) were prepared in TBST and incubated with the membrane for 1 h at room temperature (RT). Membrane was washed for 15 minutes with TBST (incubate for three times, […]) prior to imaging.
The degradation efficiency of various DNA-PROTACs was evaluated through their transfection into U251 cells, conducted simultaneously to ensure uniform experimental conditions. A double-stranded DNA sequence without any ligand was utilized as a negative control, providing a baseline for comparison. Following a 14-hour treatment period, a duration selected based on preliminary time-course studies, the cells were harvested using trypsin digestion. The lysates obtained were then subjected to SDS-PAGE, followed by Western blot analysis to assess protein degradation. […] This finding highlights the efficacy of DNA-PROTAC V02 in targeting and reducing CDK6 protein levels. In comparison, DNA-PROTAC Versions 03 and 04 also facilitated protein degradation, albeit with varying degrees of efficiency. […]

T1 sequence (Q00534 whole entry): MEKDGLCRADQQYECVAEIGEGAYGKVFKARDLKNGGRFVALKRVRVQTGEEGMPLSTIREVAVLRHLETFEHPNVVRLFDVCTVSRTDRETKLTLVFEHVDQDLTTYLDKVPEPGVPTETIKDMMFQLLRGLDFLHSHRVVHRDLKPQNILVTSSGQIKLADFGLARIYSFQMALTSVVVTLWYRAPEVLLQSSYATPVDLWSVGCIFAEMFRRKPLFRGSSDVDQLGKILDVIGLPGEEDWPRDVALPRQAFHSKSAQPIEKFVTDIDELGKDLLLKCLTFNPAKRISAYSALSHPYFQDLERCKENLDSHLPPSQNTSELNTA

Compound: CC(=O)c1c(C)c2cnc(Nc3ccc(N4CCN(CCOCCOCCOCCNC(=O)COc5cccc6c5C(=O)N(C5CCC(=O)NC5=O)C6=O)CC4)cn3)nc2n(C2CCCC2)c1=O (centres unmarked) [BSJ-03-123, reference compound]
- CDK6 protein levels (Western blot) (160 nM treatment): discernible reduction in protein levels

Compound: A-minor-00: angular-series DNA duplex of E3-i strand SEQ ID NO 3 and POI-i strand SEQ ID NO 5 (chain 1 ACTCCATCTANTTCTACGCCA; chain 2 TGGCGTAGAATAGANTGGAGT; pomalidomide and POI ligand conjugated; modified_base 1 OTHER; Nucleotide with phosphorothioate linkage; modified_base 2 OTHER; modified_base 3 OTHER; misc_difference 11 E3 ligase attached to 3-Dimethoxytrityloxy-2-(3-(fluorenylmethoxycarbonylamino)propanamido)propyl-1-O-(2-cyanoethyl)-(N,N-diisopropyl)-phosphoramidite modified adenosine, cytidine, thymi; m)
- CDK6 protein degradation (Western blot) (concentration not given): marginal CDK6 degradation

Compound: A-minor-01: angular-series DNA duplex of E3-i strand SEQ ID NO 3 and POI-i strand SEQ ID NO 21 (chain 1 ACTCCATCTANTTCTACGCCA; chain 2 TGGCGTAGAATAGNATGGAGT; E3 and POI ligands conjugated; modified_base 1 OTHER; Nucleotide with phosphorothioate linkage; modified_base 2 OTHER; modified_base 3 OTHER; misc_difference 11 E3 ligase attached to 3-Dimethoxytrityloxy-2-(3-(fluorenylmethoxycarbonylamino)propanamido)propyl-1-O-(2-cyanoethyl)-(N,N-diisopropyl)-phosphoramidite modified adenosine, cytidine, thymi; m)
- CDK6 protein degradation (Western blot) (100 nM): substantial degradation

Compound: A-minor-02: angular-series DNA duplex of E3-i strand SEQ ID NO 3 and POI-i strand SEQ ID NO 22 (chain 1 ACTCCATCTANTTCTACGCCA; chain 2 TGGCGTAGAATANGATGGAGT; E3 and POI ligands conjugated; modified_base 1 OTHER; Nucleotide with phosphorothioate linkage; modified_base 2 OTHER; modified_base 3 OTHER; misc_difference 11 E3 ligase attached to 3-Dimethoxytrityloxy-2-(3-(fluorenylmethoxycarbonylamino)propanamido)propyl-1-O-(2-cyanoethyl)-(N,N-diisopropyl)-phosphoramidite modified adenosine, cytidine, thymi; m)
- CDK6 protein degradation (Western blot) (100 nM): substantial degradation

Compound: A-minor-03: angular-series DNA duplex of E3-i strand SEQ ID NO 3 and POI-i strand SEQ ID NO 23 (chain 1 ACTCCATCTANTTCTACGCCA; chain 2 TGGCGTAGAATNAGATGGAGT; E3 and POI ligands conjugated; modified_base 1 OTHER; Nucleotide with phosphorothioate linkage; modified_base 2 OTHER; modified_base 3 OTHER; misc_difference 11 E3 ligase attached to 3-Dimethoxytrityloxy-2-(3-(fluorenylmethoxycarbonylamino)propanamido)propyl-1-O-(2-cyanoethyl)-(N,N-diisopropyl)-phosphoramidite modified adenosine, cytidine, thymi; m)
- concentration at which significant CDK6 degradation begins (14 hours, angular series): 20 nM

Compound: Version 03: DNA duplex of E3-i strand SEQ ID NO 3 and POI-i strand SEQ ID NO 5 (chain 1 ACTCCATCTANTTCTACGCCA; chain 2 TGGCGTAGAATAGANTGGAGT; E3 and POI ligands conjugated; modified_base 1 OTHER; Nucleotide with phosphorothioate linkage; modified_base 2 OTHER; modified_base 3 OTHER; misc_difference 11 E3 ligase attached to 3-Dimethoxytrityloxy-2-(3-(fluorenylmethoxycarbonylamino)propanamido)propyl-1-O-(2-cyanoethyl)-(N,N-diisopropyl)-phosphoramidite modified adenosine, cytidine, thymi; m)
- CDK6 protein degradation (Western blot) (100 nM): substantially reduce CDK6 protein levels

Compound: Version 04: DNA duplex of E3-i strand SEQ ID NO 3 and POI-i strand SEQ ID NO 6 (chain 1 ACTCCATCTANTTCTACGCCA; chain 2 TGGCNGTAGAATAGATGGAGT; E3 and POI ligands conjugated; modified_base 1 OTHER; Nucleotide with phosphorothioate linkage; modified_base 2 OTHER; modified_base 3 OTHER; misc_difference 11 E3 ligase attached to 3-Dimethoxytrityloxy-2-(3-(fluorenylmethoxycarbonylamino)propanamido)propyl-1-O-(2-cyanoethyl)-(N,N-diisopropyl)-phosphoramidite modified adenosine, cytidine, thymi; m)
- CDK6 protein degradation (Western blot) (50 nM): more pronounced reduction in protein levels

Compound: Version 05: DNA duplex of E3-i strand SEQ ID NO 18 and POI-i strand SEQ ID NO 20; largest ligand distance of approximately 60.2 Å (chain 1 ANCTCCATCTATTCTACGCCA; chain 2 TNGGCGTAGAATAGATGGAGT; E3 and POI ligands conjugated; modified_base 1 OTHER; Nucleotide with phosphorothioate linkage; misc_difference 2 E3 ligase attached to 3-Dimethoxytrityloxy-2-(3-(fluorenylmethoxycarbonylamino)propanamido)propyl-1-O-(2-cyanoethyl)-(N,N-diisopropyl)-phosphoramidite modified adenosine, cytidine, thymidine, guanosine, unknown or other nucleotide with phosphorothioate linkage; modified_base 3 OTHER; Nucleotide with phosphorothioate; misc_difference 2 Protein of interest attached to 3-Dimethoxytrityloxy-2-(3-(fluorenylmethoxycarbonylamino)propanamido)propyl-1-O-()
- CDK6 protein degradation (Western blot) (50 nM and 100 nM, vs ligand-free dsDNA control): did not exhibit any discernible protein degradation
